Values joined by “and” are separate entries in the source; they are usually repeats but may differ in a detail not shown here. Equal entries are not always repeated.
How the values were obtained:
[1] = target: T1, calf caudate (Bos taurus, UniProt P20288); type: binding
T1 construct: homogenised calf caudate (8 mg/ml); from tissue; host or cells: calf caudate, homogenised

[2] = target: T1, calf caudate; assay: Recovery of haloperidol added to drug-free serum, measured by the 3H-spiperone/calf caudate radioreceptor assay; type: binding; details: in the presence of TBEP
[3] = test system: β-Adrenergic Receptors; type: binding, rat
[4] = Radioreceptor assay for tricyclic antidepressant drugs: binding of 3H-desipramine to talc in the presence of serum or buffer, with blocking agent

T1 sequence (P20288 whole entry): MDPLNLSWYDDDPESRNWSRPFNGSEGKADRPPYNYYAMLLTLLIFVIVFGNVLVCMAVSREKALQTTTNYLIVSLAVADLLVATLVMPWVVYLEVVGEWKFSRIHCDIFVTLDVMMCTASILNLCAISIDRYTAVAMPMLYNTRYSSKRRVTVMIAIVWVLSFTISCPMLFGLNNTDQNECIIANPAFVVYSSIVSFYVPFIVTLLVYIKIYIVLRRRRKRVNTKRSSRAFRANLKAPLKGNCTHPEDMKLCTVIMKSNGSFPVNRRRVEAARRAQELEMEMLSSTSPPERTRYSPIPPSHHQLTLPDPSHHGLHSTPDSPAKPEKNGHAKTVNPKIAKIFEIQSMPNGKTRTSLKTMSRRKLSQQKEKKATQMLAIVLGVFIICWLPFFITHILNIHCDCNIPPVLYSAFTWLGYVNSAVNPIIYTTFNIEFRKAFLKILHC

## CCCCOCCOP(=O)(OCCOCCCC)OCCOCCCC [TBEP, tris(butoxyethyl) phosphate]
[1]
  % 3H-Spiperone Bound in Buffer: 35.0% and 35.3% and 35.6% and 32.5% and 32.4% and 31.6% and 27.7%
  % 3H-Spiperone Bound in Serum: 23.0% and 26.2% and 27.8% and 29.1% and 27.2% and 26.1% and 24.3%
  % of 3H-Spiperone Bound, TBEP present: 31.9% and 32.2% and 31.5% and 33.8% and 33.5% and 32.8% and 31.8%
  % of 3H-Spiperone Bound, TBEP present, mean (X): 32.4%
  between sample variability (CV) in 3H-spiperone binding: reduced
[2]
  variability (CV) in the recovery of added haloperidol: reduced
[3]
  125I-HYP Bound (CPM) in Buffer: 8513 CPM and 8226 CPM and 8729 CPM and 8510 CPM and 8630 CPM and 8412 CPM

## CCOP(=O)(OCC)OCC [TEP, triethyl phosphate]
[1]
  % 3H-Spiperone Bound in Buffer: 37.9% and 37.5% and 37.1% and 36.6% and 36.8% and 35.0%
  % 3H-Spiperone Bound in Serum: 27.8% and 28.6% and 29.1% and 30.1% and 30.6% and 29.8%
  % Change in Buffer: 0% and -1% and -2% and -3% and -7%
[3]
  125I-HYP Bound (CPM) in Buffer: 8367 CPM and 7988 CPM and 7972 CPM and 7931 CPM and 7613 CPM
  125I-HYP Bound (CPM) in Serum: 3812 CPM and 4131 CPM and 6011 CPM and 5903 CPM and 5881 CPM
  % Change in Buffer: -1% and -5% and -6% and -10%
[4]; 50 μg/ml TEP
  3H-Desipramine Bound (CPM) in Buffer: 12093 CPM
  3H-Desipramine Bound (CPM) in Serum: 7740 CPM
  % Change in Buffer: -2%
  % Change in Serum: +10%
[4]; 100 μg/ml TEP
  3H-Desipramine Bound (CPM) in Buffer: 11748 CPM
  3H-Desipramine Bound (CPM) in Serum: 8276 CPM
  % Change in Buffer: -5%
  % Change in Serum: +18%
[4]; 500 μg/ml TEP
  3H-Desipramine Bound (CPM) in Buffer: 13024 CPM
  3H-Desipramine Bound (CPM) in Serum: 9204 CPM
  % Change in Buffer: +6%
  % Change in Serum: +31%
[4]; 750 μg/ml TEP
  3H-Desipramine Bound (CPM) in Buffer: 11507 CPM
  3H-Desipramine Bound (CPM) in Serum: 9198 CPM
  % Change in Buffer: -6%
  % Change in Serum: +30%
[4]; 1000 μg/ml TEP
  3H-Desipramine Bound (CPM) in Buffer: 11925 CPM
  3H-Desipramine Bound (CPM) in Serum: 9745 CPM
  % Change in Buffer: -3%
  % Change in Serum: +39%
[4]; 1250 μg/ml TEP
  3H-Desipramine Bound (CPM) in Buffer: 12362 CPM
  3H-Desipramine Bound (CPM) in Serum: 10016 CPM
  % Change in Buffer: 0%
  % Change in Serum: +43%
